Assay: Tooth whitening: colour change of tooth enamel measured with a dental spectrophotometer (L*a*b, ISO 28399)
Settings: peptide alone 7.5 mg/mL, without excipients; 24 h after application; 10 teeth, three measurements per tooth
Procedure: Suspensions of oligopeptide 104 (5 mg/ml) with or without hydroxyapatite particles (average size d50≤300 nm (Horiba); 40-60% crystallinity, 25 wt %) were generated.
The suspensions were directly applied onto an enamel surface of a tooth, and residues washed off (10 sec). The specimen was stored in distilled water for 24 hours at 37° C. The procedure was repeated 3 times.
The tooth colour was measured with a dental spectrophotometer (VITA Easyshade). The illumination conditions were standardized with a black box as the background for the teeth during the measurement. The tip was applied perpendicular to the tooth surface and the average L*a*b-values from three repetitions were used for evaluations. Colour measurement were done at baseline ([…]), 24 hours after first application (t1), 24 hours after second application (t3), 24 hours after the third application (t4).
The mean changes of the L*a*b-values between different measurements in each group were expressed as […]E (according to ISO 28399).
Oligopeptide 104 was used in a concentration of 7.5 mg/mL, i.e., the concentration was higher than the concentration of peptide used in the application alone. ΔE was determined 24 h after application, with three measurements per tooth and 10 teeth examined. ΔE was 0.62. […]

QQRFEWEFEQQ (P11-4 / oligopeptide 104)
ΔE: 0.62
